Measurements: PubChem BioAssay AID248 (DTP/NCI, 2004)
Values joined by “and” are separate entries in the source; they are usually repeats but may differ in a detail not shown here. Equal values may be shown once. Toxic doses and inconclusive results are not listed.

Test system: L1210 leukemia ip in BDF1 mice, survival T/C
Assay: NCI In Vivo Anticancer Drug Screen. Data for tumor model L1210 Leukemia (intraperitoneal) in B6D2F1 (BDF1) mice
Details: endpoint: mean survival time, higher = longer survival
Outline: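 Transplantable tumor model; survival measured in treated vs vehicle control mice. Value = treated/control.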

[1] = dose: 100.0 mg/kg/injection, schedule: Q01DX009 (ip), vehicle: saline
[2] = dose: 200.0 mg/kg/injection, schedule: Q01DX009 (ip), vehicle: saline
[3] = dose: 200.0 mg/kg/injection, schedule: Q04DX003 (ip), vehicle: saline
[4] = dose: 100.0 mg/kg/injection, schedule: Q01DX001 (ip), vehicle: carboxymethylcellulose (CMC)
[5] = dose: 200.0 mg/kg/injection, schedule: Q01DX001 (ip), vehicle: carboxymethylcellulose (CMC)
[6] = dose: 400.0 mg/kg/injection, schedule: Q01DX001 (ip), vehicle: carboxymethylcellulose (CMC)
[7] = dose: 100.0 mg/kg/injection, schedule: Q01DX001 (ip), vehicle: saline
[8] = dose: 200.0 mg/kg/injection, schedule: Q01DX001 (ip), vehicle: saline
[9] = dose: 25.0 mg/kg/injection, schedule: Q01DX009 (ip), vehicle: saline

What does the source list for `[N-]=[N+]=C1C(=O)NC(=O)N2C3CC(O)C(COC12)O3` (centres undefined)?
T/C (dose: 32.0 mg/kg/injection, schedule: Q01DX Z (oral), vehicle: saline): 110 % of control; T/C (dose: 63.0 mg/kg/injection, schedule: Q01DX Z (oral), vehicle: saline): 105 % of control; T/C [1]: 111 % of control; T/C (dose: 100.0 mg/kg/injection, schedule: Q04DX003 (ip), vehicle: saline): 102 % of control; T/C (dose: 125.0 mg/kg/injection, schedule: Q01DX Z (oral), vehicle: saline): 101 % of control; T/C (dose: 133.0 mg/kg/injection, schedule: Q01DX006 (iv), vehicle: saline): 106 % of control; T/C (dose: 133.0 mg/kg/injection, schedule: Q01DX Z (ip), vehicle: carboxymethylcellulose (CMC)): 104 % of control; T/C (dose: 133.0 mg/kg/injection, schedule: Q01DX Z (ip), vehicle: saline): 113 % of control and 119 % of control; T/C (dose: 200.0 mg/kg/injection, schedule: Q01DX006 (iv), vehicle: saline): 110 % of control; T/C [2]: 114 % of control; T/C (dose: 200.0 mg/kg/injection, schedule: Q01DX Z (ip), vehicle: carboxymethylcellulose (CMC)): 105 % of control; T/C (dose: 200.0 mg/kg/injection, schedule: Q01DX Z (ip), vehicle: saline): 117 % of control; T/C [3]: 107 % of control; T/C (dose: 250.0 mg/kg/injection, schedule: Q01DX Z (oral), vehicle: carboxymethylcellulose (CMC)): 108 % of control; T/C (dose: 250.0 mg/kg/injection, schedule: Q01DX Z (oral), vehicle: saline): 105 % of control and 107 % of control; T/C (dose: 300.0 mg/kg/injection, schedule: Q01DX006 (iv), vehicle: saline): 118 % of control; T/C (dose: 300.0 mg/kg/injection, schedule: Q01DX Z (ip), vehicle: saline): 150 % of control; T/C (dose: 400.0 mg/kg/injection, schedule: Q04DX003 (ip), vehicle: saline): 107 % of control; T/C (dose: 450.0 mg/kg/injection, schedule: Q01DX006 (iv), vehicle: saline): 116 % of control; T/C (dose: 500.0 mg/kg/injection, schedule: Q01DX Z (oral), vehicle: carboxymethylcellulose (CMC)): 98 % of control; T/C (dose: 500.0 mg/kg/injection, schedule: Q01DX Z (oral), vehicle: saline): 107 % of control and 117 % of control; T/C (dose: 675.0 mg/kg/injection, schedule: Q01DX006 (iv), vehicle: saline): 112 % of control; T/C (dose: 675.0 mg/kg/injection, schedule: Q01DX Z (ip), vehicle: saline): 111 % of control; T/C (dose: 800.0 mg/kg/injection, schedule: Q01DX006 (iv), vehicle: saline): 102 % of control; T/C (dose: 1000.0 mg/kg/injection, schedule: Q01DX006 (iv), vehicle: saline): 102 % of control; T/C (dose: 1000.0 mg/kg/injection, schedule: Q01DX Z (oral), vehicle: carboxymethylcellulose (CMC)): 100 % of control; T/C (dose: 2000.0 mg/kg/injection, schedule: Q01DX Z (oral), vehicle: carboxymethylcellulose (CMC)): 107 % of control

How did the T/C [4] turn out when `O=C(O)CSCc1cccc2ccccc12` was run?
Its T/C is 91 % of control.

What about the T/C (dose: 100.0 mg/kg/injection, schedule: Q04DX003 (ip), vehicle: Klucel (hydroxypropylcellulose) (HPC)) of the same compound?
Its T/C is 98 % of control.

And the T/C [5]?
The T/C was 93 % of control.

What about the T/C (dose: 200.0 mg/kg/injection, schedule: Q04DX003 (ip), vehicle: Klucel (hydroxypropylcellulose) (HPC)) of the same compound?
Its T/C is 94 % of control.

And the T/C [6]?
The T/C was 91 % of control.

What about the T/C (dose: 400.0 mg/kg/injection, schedule: Q04DX003 (ip), vehicle: Klucel (hydroxypropylcellulose) (HPC)) of the same compound?
Its T/C is 105 % of control.

`COc1cc(C(=O)Nc2ccc(C3=NCCN3)cc2)ccc1C(=O)Nc1ccc(C2=NCCN2)cc1` was tested. Which T/C (dose: 15.0 mg/kg/injection, schedule: Q01DX Z (ip), vehicle: saline) did it give?
Its T/C is 159 % of control and 172 % of control.

What about the T/C (dose: 30.0 mg/kg/injection, schedule: Q01DX Z (ip), vehicle: saline) of the same compound?
The T/C was 212 % of control.

What about the T/C (dose: 60.0 mg/kg/injection, schedule: Q01DX010 (oral), vehicle: saline) of the same compound?
Its T/C is 101 % of control.

And the T/C (dose: 60.0 mg/kg/injection, schedule: Q01DX Z (ip), vehicle: saline)?
Its T/C is 188 % of control.

And the T/C (dose: 120.0 mg/kg/injection, schedule: Q01DX010 (oral), vehicle: saline)?
Its T/C is 104 % of control.

What about the T/C (dose: 240.0 mg/kg/injection, schedule: Q01DX010 (oral), vehicle: saline) of the same compound?
The T/C was 98 % of control.

Which results are given for `NNc1ccc(CC(=O)O)cc1`?
T/C [7]: 98 % of control; T/C [8]: 93 % of control; T/C (dose: 400.0 mg/kg/injection, schedule: Q01DX001 (ip), vehicle: saline): 98 % of control

`CCc1ccccc1N1CCN(C(=O)c2cc(OC)c(OC)c(OC)c2)CC1` was tested. Which T/C [9] did it give?
The T/C was 100 % of control.

And the T/C (dose: 50.0 mg/kg/injection, schedule: Q01DX009 (ip), vehicle: saline)?
Its T/C is 102 % of control and 105 % of control.

What about the T/C (dose: 50.0 mg/kg/injection, schedule: Q01DX Z (ip), vehicle: carboxymethylcellulose (CMC)) of the same compound?
The T/C was 104 % of control.

And the T/C (dose: 50.0 mg/kg/injection, schedule: Q04DX003 (ip), vehicle: acetone)?
Its T/C is 98 % of control.

What about the T/C (dose: 50.0 mg/kg/injection, schedule: Q04DX003 (ip), vehicle: saline) of the same compound?
The T/C was 94 % of control.

What about the T/C (dose: 74.0 mg/kg/injection, schedule: Q01DX009 (ip), vehicle: saline) of the same compound?
Its T/C is 100 % of control.

And the T/C (dose: 74.0 mg/kg/injection, schedule: Q01DX Z (ip), vehicle: carboxymethylcellulose (CMC))?
Its T/C is 107 % of control.

And the T/C (dose: 74.0 mg/kg/injection, schedule: Q04DX003 (ip), vehicle: saline)?
Its T/C is 92 % of control.

And the T/C [7]?
The T/C was 100 % of control.

And the T/C [1]?
Its T/C is 114 % of control.

What about the T/C (dose: 100.0 mg/kg/injection, schedule: Q04DX003 (ip), vehicle: acetone) of the same compound?
Its T/C is 97 % of control.

What about the T/C (dose: 112.0 mg/kg/injection, schedule: Q01DX009 (ip), vehicle: saline) of the same compound?
Its T/C is 97 % of control.

And the T/C (dose: 112.0 mg/kg/injection, schedule: Q01DX Z (ip), vehicle: carboxymethylcellulose (CMC))?
The T/C was 102 % of control.

And the T/C (dose: 112.0 mg/kg/injection, schedule: Q04DX003 (ip), vehicle: saline)?
Its T/C is 99 % of control.

What about the T/C (dose: 168.0 mg/kg/injection, schedule: Q01DX009 (ip), vehicle: saline) of the same compound?
The T/C was 108 % of control.

And the T/C (dose: 168.0 mg/kg/injection, schedule: Q04DX003 (ip), vehicle: saline)?
Its T/C is 97 % of control and 99 % of control.

And the T/C [8]?
Its T/C is 103 % of control.

And the T/C [2]?
Its T/C is 100 % of control.

What about the T/C [3] of the same compound?
Its T/C is 103 % of control.

And the T/C (dose: 225.0 mg/kg/injection, schedule: Q01DX009 (ip), vehicle: saline)?
Its T/C is 97 % of control.

And the T/C (dose: 250.0 mg/kg/injection, schedule: Q04DX003 (ip), vehicle: saline)?
The T/C was 103 % of control.

How did the T/C (dose: 75.0 mg/kg/injection, schedule: Q01DX009 (ip), vehicle: saline with Tween-80) turn out when `CC(C(O)c1ccc(Cl)cc1)C(O)(C(F)(F)F)C(F)(F)F` (centres undefined) was run?
Its T/C is 100 % of control.

What about the T/C (dose: 150.0 mg/kg/injection, schedule: Q01DX009 (ip), vehicle: saline with Tween-80) of the same compound?
The T/C was 110 % of control.

What about the T/C (dose: 300.0 mg/kg/injection, schedule: Q01DX009 (ip), vehicle: saline with Tween-80) of the same compound?
The T/C was 101 % of control.

Which results are given for `CN(C)S(=O)(=O)c1ccc(CC(O)(c2ccccc2)c2ccccc2)cc1`?
T/C (dose: 88.8 mg/kg/injection, schedule: Q01DX001 (ip), vehicle: carboxymethylcellulose (CMC)): 105 % of control and 91 % of control; T/C [4]: 98 % of control; T/C (dose: 133.0 mg/kg/injection, schedule: Q01DX001 (ip), vehicle: carboxymethylcellulose (CMC)): 120 % of control and 91 % of control; T/C [5]: 96 % of control and 109 % of control; T/C (dose: 300.0 mg/kg/injection, schedule: Q01DX001 (ip), vehicle: carboxymethylcellulose (CMC)): 93 % of control and 97 % of control; T/C [6]: 104 % of control

With `Brc1cc(Br)c(I)c(Br)c1` as the compound, how does the T/C (dose: 100.0 mg/kg/injection, schedule: Q01DX009 (ip), vehicle: saline with Tween-80) read?
Its T/C is 102 % of control.

What about the T/C (dose: 100.0 mg/kg/injection, schedule: Q04DX003 (ip), vehicle: saline with Tween-80) of the same compound?
The T/C was 96 % of control.

And the T/C (dose: 200.0 mg/kg/injection, schedule: Q01DX009 (ip), vehicle: saline with Tween-80)?
Its T/C is 101 % of control.

What about the T/C (dose: 200.0 mg/kg/injection, schedule: Q04DX003 (ip), vehicle: saline with Tween-80) of the same compound?
The T/C was 108 % of control.

And the T/C (dose: 400.0 mg/kg/injection, schedule: Q01DX009 (ip), vehicle: saline with Tween-80)?
The T/C was 101 % of control.

And the T/C (dose: 400.0 mg/kg/injection, schedule: Q04DX003 (ip), vehicle: saline with Tween-80)?
The T/C was 103 % of control.

Which T/C (dose: 12.5 mg/kg/injection, schedule: Q01DX009 (ip), vehicle: saline) does the source give for `N/C(=N/O)c1cn(C2OC(CO)C(O)C2O)c2ncnc(NO)c12` (centres undefined) here?
Its T/C is 121 % of control.

And the T/C [9]?
The T/C was 86 % of control.

Which T/C (dose: 25.0 mg/kg/injection, schedule: Q04DX002 (ip), vehicle: Klucel (hydroxypropylcellulose) (HPC)) does the source give for `COc1ccc(-c2cc3c(OC)ccc(OC)c3[nH]2)cc1OC` here?
The T/C was 96 % of control.

And the T/C (dose: 50.0 mg/kg/injection, schedule: Q04DX002 (ip), vehicle: Klucel (hydroxypropylcellulose) (HPC))?
Its T/C is 96 % of control and 99 % of control.

And the T/C (dose: 100.0 mg/kg/injection, schedule: Q04DX002 (ip), vehicle: Klucel (hydroxypropylcellulose) (HPC))?
The T/C was 91 % of control.

What about the T/C (dose: 200.0 mg/kg/injection, schedule: Q04DX002 (ip), vehicle: Klucel (hydroxypropylcellulose) (HPC)) of the same compound?
The T/C was 93 % of control.
